The record followed here is ChEMBL document CHEMBL1201862, “PubChem BioAssay data set” (2004).

Among the test systems are PC-3; DU-145; HCT-116; K562; OVCAR-5; Hs-578T; UO-31; SN12C; MDA-MB-231; SK-OV-3; HCC 2998; U-251; T47D; SR; NCI-H460; OVCAR-8; MOLT-4; HL-60; MCF7.
Assay in all cases: NCI anticancer screen, dose series, 48 h

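Briefly, cells in 96-well plates were exposed to five compound concentrations for 48 h, and endpoints were estimated by linear interpolation. Abbreviation: GI50, concentration required for 50% inhibition of growth.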 Calls of active or inactive are those of the source. No stated cut-off is given here; in the data, active = GI50 up to about 1.1 µM and inactive = higher.

For the compound `CC1(C)[C@@H](Cn2cc(I)c(=O)[nH]c2=O)CC[C@@]1(C)CO`, the GI50 in the assay on PC-3 was > 100 µM (inactive); in the assay with DU-145, > 100 µM (inactive); in the assay with HCT-116, > 100 µM (inactive); in the assay with K562 it was 45.1 µM (inactive); with OVCAR-5, > 100 µM (inactive); in the assay with Hs-578T, > 100 µM (inactive). The GI50 in the assay with UO-31, in the assay with SN12C, in the assay with MDA-MB-231, in the assay on SK-OV-3, in the assay with HCC 2998 and in the assay on U-251 was > 100 µM (inactive) each time. The GI50 in the assay on T47D is > 100 µM (inactive).
`CCN(CC)/N=C\c1c2ccccc2cc2ccccc12`: the GI50 in the assay on PC-3 is 41.1 µM (inactive); with DU-145 it was 82 µM (inactive); with SR, 26.6 µM (inactive); with HCT-116, 31.8 µM (inactive); in the assay with NCI-H460, 30.7 µM (inactive); with K562 it was 44.9 µM (inactive). The GI50 with OVCAR-8 was 61.8 µM (inactive); in the assay with OVCAR-5, 37.5 µM (inactive); in the assay on Hs-578T, 48 µM (inactive); in the assay with UO-31 it was 48.8 µM (inactive); in the assay with SN12C, 48.5 µM (inactive); with MDA-MB-231, 24.9 µM (inactive). Moreover, the GI50 with SK-OV-3 is > 100 µM (inactive); with U-251 it was 24.5 µM (inactive); in the assay on MOLT-4, 21 µM (inactive); in the assay on HL-60 it was 31.7 µM (inactive); with T47D it was 42.7 µM (inactive).
For the compound `Clc1ccc2c(NCCNC3CCCCC3)ccnc2c1`, the GI50 with PC-3 is 12.9 µM (inactive); in the assay with DU-145, 16.1 µM (inactive); with HCT-116 it was 5.96 µM (inactive); with K562, 2.12 µM (inactive); with OVCAR-8 it was 10.7 µM (inactive); in the assay with OVCAR-5, 14.9 µM (inactive). The GI50 with Hs-578T was 2.54 µM (inactive); in the assay on UO-31, 2.95 µM (inactive); with SN12C, 16.2 µM (inactive); in the assay on MDA-MB-231 it was 9.62 µM (inactive); in the assay on SK-OV-3, 13.9 µM (inactive); in the assay with U-251, 5.5 µM (inactive). In addition, the GI50 in the assay on MOLT-4 is 3.48 µM (inactive); with HL-60, 2.42 µM (inactive); in the assay on MCF7 it was 4.53 µM (inactive); in the assay with T47D, 4.2 µM (inactive).
Regarding `CC1(C)CC(=O)C2=C(C1)OC1=C(CC(C)(C)CC1=O)C2c1ccccc1Cl` (stereo not given), the GI50 with PC-3, in the assay on DU-145, in the assay with SR, in the assay with HCT-116, in the assay with NCI-H460 and in the assay on K562 was > 100 µM (inactive) each time. Moreover, the GI50 with OVCAR-8 is > 100 µM (inactive); in the assay with OVCAR-5 it was > 100 µM (inactive); in the assay on Hs-578T, > 100 µM (inactive); in the assay with UO-31, 1.94 µM (inactive); in the assay with SN12C it was > 100 µM (inactive); in the assay with MDA-MB-231, 89.7 µM (inactive). Further, the GI50 with SK-OV-3, in the assay on HCC 2998, in the assay on U-251, in the assay with MOLT-4, in the assay on HL-60 and in the assay with T47D was > 100 µM (inactive) in each case.
Consider `C[C@H](O)C1CC(Cn2nnc3c(N)ncnc32)C1(C)C` (stereo not given in full), for which the GI50 with PC-3 was > 100 µM (inactive); in the assay with DU-145, > 100 µM (inactive); in the assay on HCT-116, > 100 µM (inactive); in the assay on K562 it was < 0.01 µM (active); in the assay on OVCAR-5 it was > 100 µM (inactive); in the assay on Hs-578T, > 100 µM (inactive). The GI50 in the assay on UO-31, in the assay with SN12C, in the assay with MDA-MB-231, with SK-OV-3, with HCC 2998 and in the assay on U-251 was > 100 µM (inactive) each time. For the same compound, the GI50 in the assay on MCF7 and in the assay with T47D was > 100 µM (inactive) each time.
Regarding `Cc1nc2ccccc2n1Cc1ccc(NC(=S)NC2CCCCC2)cc1`, the GI50 with PC-3 is 31.3 µM (inactive); in the assay on DU-145 it was 36.8 µM (inactive); in the assay on HCT-116, 34.9 µM (inactive); in the assay with NCI-H460 it was 35.5 µM (inactive); in the assay on K562 it was 14.7 µM (inactive); in the assay with OVCAR-8, 30.9 µM (inactive). In addition, the GI50 in the assay on OVCAR-5 was > 100 µM (inactive); in the assay with Hs-578T, 29 µM (inactive); in the assay on UO-31 it was 41 µM (inactive); with SN12C it was 7.03 µM (inactive); with MDA-MB-231, 38.1 µM (inactive); with SK-OV-3, > 92.7 µM (inactive). Moreover, the GI50 in the assay with HCC 2998 is 36.6 µM (inactive); with U-251 it was 32.6 µM (inactive); in the assay with MOLT-4, 5.36 µM (inactive); in the assay on HL-60 it was 25.6 µM (inactive); in the assay with MCF7 it was 4.86 µM (inactive); with T47D, 5.74 µM (inactive).
For `Cc1cc2nc3c(N)nn(CCCN(C)C)c3nc2cc1C`, the GI50 in the assay with PC-3 was > 100 µM (inactive); in the assay on DU-145, > 100 µM (inactive); in the assay on HCT-116, 50.5 µM (inactive); with NCI-H460, 80.5 µM (inactive); in the assay on OVCAR-8, 83 µM (inactive); with OVCAR-5, > 100 µM (inactive). Moreover, the GI50 in the assay with Hs-578T is > 100 µM (inactive); in the assay with UO-31, 46.6 µM (inactive); with SN12C it was > 100 µM (inactive); in the assay on MDA-MB-231, 60.5 µM (inactive); with SK-OV-3, > 100 µM (inactive); in the assay with HCC 2998, 41.3 µM (inactive). The GI50 in the assay with U-251 is 71.9 µM (inactive); in the assay with MCF7, 33.4 µM (inactive); in the assay on T47D, > 100 µM (inactive).
`O=[As](O)(O)c1ccc(NCc2ccccc2)cc1`: the GI50 with PC-3, in the assay with DU-145, with SR, in the assay with HCT-116, with NCI-H460 and in the assay with K562 was > 100 µM (inactive) each time. Also, the GI50 in the assay on OVCAR-8 is > 100 µM (inactive); in the assay with OVCAR-5, > 100 µM (inactive); in the assay on Hs-578T, 58.9 µM (inactive); with UO-31 it was > 100 µM (inactive); with SN12C, > 100 µM (inactive); in the assay on MDA-MB-231 it was > 100 µM (inactive). In addition, the GI50 in the assay with U-251, in the assay on MOLT-4, in the assay with MCF7 and with T47D was > 100 µM (inactive) in each case.
With `O=C1C=CC=C/C1=C1\N=C(c2ccccc2OCC(=O)c2ccc(Br)cc2)SS1`, the GI50 in the assay with PC-3 is > 100 µM (inactive); in the assay on DU-145, > 100 µM (inactive); with HCT-116 it was 78.9 µM (inactive); in the assay on NCI-H460, > 100 µM (inactive); in the assay on K562, > 100 µM (inactive); in the assay on OVCAR-8 it was 93.5 µM (inactive). Further, the GI50 in the assay with OVCAR-5 is > 100 µM (inactive); in the assay on Hs-578T, 15.2 µM (inactive); with UO-31, > 100 µM (inactive); with SN12C, > 100 µM (inactive); with MDA-MB-231, > 10 µM (inactive); in the assay on SK-OV-3, 34.3 µM (inactive). The GI50 with HCC 2998 is > 100 µM (inactive); in the assay with U-251, 40.3 µM (inactive); in the assay with MOLT-4, > 10 µM (inactive); with HL-60, > 100 µM (inactive); in the assay with MCF7 it was > 100 µM (inactive); in the assay with T47D it was > 100 µM (inactive).
